Experimental data published in patent publication US9855270B2, “Methods and compositions for modulating estrogen receptor mutants” (priority 2014, dated 2018).

Tested on: mutant ERα
Conditions: 24 hr; estrogen-depleted medium containing 100 ng/ml Dox; absence of E2

## CC/C(=C(\c1ccccc1)c1ccc(OCCN(C)C)cc1)c1ccccc1 [tamoxifen]
  mutant ERα degradation: not
